In PubChem BioAssay (NCI):
Values joined by “and” are separate entries in the source; they are usually repeats but may differ in a detail not shown here. Equal entries are not always repeated.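 Compound exposure: 48 hours, 5 concentrations, 96-well plates. GI50 = concentration required for 50% inhibition of growth. Definition used: TGI = concentration required for complete inhibition of growth.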

How the values were obtained:
Assay in all cases: inhibition of tumour cell growth, NCI panel, 48 h
SF-295 CNS = system: SF-295 CNS
OVCAR-8 ovarian = system: OVCAR-8 ovarian
KM12 colon = system: KM12 colon
HCT-15 colon = system: HCT-15 colon
786-0 renal = system: 786-0 renal
CAKI-1 renal = system: CAKI-1 renal
NCI-H23 lung = system: NCI-H23 lung
DU-145 prostate = system: DU-145 prostate
SW-620 colon = system: SW-620 colon
SK-OV-3 ovarian = system: SK-OV-3 ovarian
MCF7 breast = system: MCF7 breast
EKVX NSCLC = system: EKVX NSCLC
TK-10 renal = system: TK-10 renal
HT29 colon = system: HT29 colon
A549 NSCLC = system: A549 NSCLC
MDA-MB-435 = system: MDA-MB-435
NCI-H460 lung = system: NCI-H460 lung
HS 578T breast = system: HS 578T breast
LOX IMVI melanoma = system: LOX IMVI melanoma
MALME-3M melanoma = system: MALME-3M melanoma
PC-3 prostate = system: PC-3 prostate
ACHN renal = system: ACHN renal
SK-MEL-5 melanoma = system: SK-MEL-5 melanoma
NCI-H522 lung = system: NCI-H522 lung
HOP-92 NSCLC = system: HOP-92 NSCLC
SNB-19 CNS = system: SNB-19 CNS
OVCAR-3 ovarian = system: OVCAR-3 ovarian
MDA-MB-231 breast = system: MDA-MB-231 breast
A498 renal = system: A498 renal
COLO 205 colon = system: COLO 205 colon
UACC-257 melanoma = system: UACC-257 melanoma
NCI/ADR-RES ovarian = system: NCI/ADR-RES ovarian
HCT-116 colon = system: HCT-116 colon
HOP-62 NSCLC = system: HOP-62 NSCLC
M14 melanoma = system: M14 melanoma
K-562 leukemia = system: K-562 leukemia
SF-539 CNS = system: SF-539 CNS
UO-31 renal = system: UO-31 renal
SK-MEL-28 melanoma = system: SK-MEL-28 melanoma
NCI-H226 lung = system: NCI-H226 lung
OVCAR-5 ovarian = system: OVCAR-5 ovarian
U251 CNS = system: U251 CNS
SF-268 CNS = system: SF-268 CNS
T-47D breast = system: T-47D breast
OVCAR-4 ovarian = system: OVCAR-4 ovarian
IGROV1 ovarian = system: IGROV1 ovarian
SR leukemia = system: SR leukemia
SNB-75 CNS = system: SNB-75 CNS
SK-MEL-2 melanoma = system: SK-MEL-2 melanoma
SN12C renal = system: SN12C renal
HCC-2998 colon = system: HCC-2998 colon
RXF 393 renal = system: RXF 393 renal
CCRF-CEM leukemia = system: CCRF-CEM leukemia
RPMI-8226 leukemia = system: RPMI-8226 leukemia
HL-60(TB) leukemia = system: HL-60(TB) leukemia
MOLT-4 leukemia = system: MOLT-4 leukemia

## NS(=O)(=O)c1ccc(NC(=O)c2ccc(NC3=C(Cl)C(=O)N(Cc4ccccc4)C3=O)cc2)cc1
SF-295 CNS
  GI50: 3.03 µM
  TGI: 17.8 µM
OVCAR-8 ovarian
  GI50: 10.2 µM
  TGI: > 100 µM
KM12 colon
  GI50: 48.7 µM
  TGI: > 100 µM
HCT-15 colon
  GI50: 13.7 µM
  TGI: 69.4 µM
786-0 renal
  GI50: 3.38 µM
  TGI: 12.5 µM
CAKI-1 renal
  GI50: 14.8 µM
  TGI: 29.3 µM
NCI-H23 lung
  GI50: 3.42 µM
  TGI: 14.3 µM
DU-145 prostate
  GI50: 17 µM
  TGI: 30.6 µM
SW-620 colon
  GI50: 2.69 µM
  TGI: 7.78 µM
SK-OV-3 ovarian
  GI50: 41 µM
  TGI: > 100 µM
MCF7 breast
  GI50: 3.03 µM
  TGI: > 100 µM
EKVX NSCLC
  GI50: 61.9 µM
  TGI: > 100 µM
TK-10 renal
  GI50: > 100 µM
  TGI: > 100 µM
HT29 colon
  GI50: 5.92 µM
  TGI: 17 µM
A549 NSCLC
  GI50: 29.1 µM
  TGI: > 100 µM
MDA-MB-435
  GI50: 10.6 µM
  TGI: 26.5 µM
NCI-H460 lung
  GI50: 5.07 µM
  TGI: > 100 µM
HS 578T breast
  GI50: 1.64 µM
  TGI: 4.5 µM
LOX IMVI melanoma
  GI50: 3.35 µM
  TGI: 39 µM
MALME-3M melanoma
  GI50: 49.4 µM
  TGI: > 100 µM
PC-3 prostate
  GI50: 12.8 µM
  TGI: 34 µM
ACHN renal
  GI50: 13.7 µM
  TGI: 26.6 µM
SK-MEL-5 melanoma
  GI50: 10.9 µM
  TGI: 24.1 µM
NCI-H522 lung
  GI50: 1.91 µM
  TGI: 4.78 µM
HOP-92 NSCLC
  GI50: 10.9 µM
  TGI: 31.3 µM
SNB-19 CNS
  GI50: > 100 µM
  TGI: > 100 µM
OVCAR-3 ovarian
  GI50: 1.89 µM
  TGI: 7.88 µM
MDA-MB-231 breast
  GI50: 2.65 µM
  TGI: 8.11 µM
A498 renal
  GI50: 14.9 µM
  TGI: 32.6 µM
COLO 205 colon
  GI50: 15.1 µM
  TGI: > 100 µM
UACC-257 melanoma
  GI50: 18.2 µM
  TGI: 56.7 µM
NCI/ADR-RES ovarian
  GI50: 19.6 µM
  TGI: 43.3 µM
HCT-116 colon
  GI50: 2.68 µM
  TGI: 10.3 µM
HOP-62 NSCLC
  GI50: 10.4 µM
  TGI: 22.1 µM
M14 melanoma
  GI50: 12 µM
  TGI: 34.6 µM
K-562 leukemia
  GI50: 3.26 µM
  TGI: > 100 µM
SF-539 CNS
  GI50: 4.59 µM
  TGI: 22 µM
UO-31 renal
  GI50: 79.3 µM
  TGI: > 100 µM
SK-MEL-28 melanoma
  GI50: 4.16 µM
  TGI: > 100 µM
NCI-H226 lung
  GI50: 2.12 µM
  TGI: 5.91 µM
OVCAR-5 ovarian
  GI50: 15.5 µM
  TGI: 33.1 µM
U251 CNS
  GI50: 5.37 µM
  TGI: 24.7 µM
SF-268 CNS
  GI50: 7.25 µM
  TGI: > 100 µM
T-47D breast
  GI50: 18.4 µM
  TGI: > 100 µM
OVCAR-4 ovarian
  GI50: 13.7 µM
  TGI: > 100 µM
IGROV1 ovarian
  GI50: 3 µM
  TGI: > 100 µM

## CN1CCc2cc3c(cc2C1O)OCO3 (stereo not given)
SF-295 CNS
  GI50: 26.7 µM and > 100 µM
  TGI: > 100 µM
OVCAR-8 ovarian
  GI50: 21.6 µM and > 100 µM
  TGI: 51.6 µM and > 100 µM
SR leukemia
  TGI: > 100 µM
SNB-75 CNS
  TGI: 17.9 µM and > 100 µM
SK-MEL-2 melanoma
  TGI: 13 µM and > 100 µM
KM12 colon
  TGI: 22.5 µM and > 100 µM
HCT-15 colon
  GI50: 20.8 µM and > 100 µM
  TGI: 45 µM and > 100 µM
786-0 renal
  GI50: 17.6 µM and > 100 µM
  TGI: 34.5 µM and > 100 µM
CAKI-1 renal
  GI50: 14.8 µM and > 100 µM
  TGI: 30.6 µM and > 100 µM
NCI-H23 lung
  TGI: 32.1 µM and > 100 µM
DU-145 prostate
  GI50: 16.7 µM and > 100 µM
  TGI: 30.8 µM and > 100 µM
SW-620 colon
  GI50: 16.6 µM and > 100 µM
  TGI: 33.8 µM and > 100 µM
SN12C renal
  GI50: 20.4 µM and > 100 µM
  TGI: 41.4 µM and > 100 µM
SK-OV-3 ovarian
  GI50: 17.5 µM and > 100 µM
  TGI: 31.7 µM and > 100 µM
MCF7 breast
  TGI: 23.3 µM and > 100 µM
EKVX NSCLC
  GI50: 17.8 µM and > 100 µM
  TGI: 36.8 µM and > 100 µM
TK-10 renal
  GI50: 19.7 µM and > 100 µM
  TGI: 39.6 µM and > 100 µM
HCC-2998 colon
  GI50: 18.8 µM and > 100 µM
  TGI: 36.9 µM and > 100 µM
HT29 colon
  GI50: 21.4 µM and > 100 µM
  TGI: 47.1 µM and > 100 µM
A549 NSCLC
  GI50: 15.9 µM and > 100 µM
  TGI: 31.6 µM and > 100 µM
MDA-MB-435
  TGI: 11.9 µM and > 100 µM
HS 578T breast
  TGI: 82.3 µM and > 100 µM
LOX IMVI melanoma
  GI50: 17.4 µM and > 100 µM
  TGI: 40.3 µM and > 100 µM
PC-3 prostate
  GI50: 17 µM and > 100 µM
  TGI: 42.7 µM and > 100 µM
ACHN renal
  GI50: 19.2 µM and > 100 µM
  TGI: 36.2 µM and > 100 µM
RXF 393 renal
  GI50: 17.9 µM and > 100 µM
  TGI: 35.2 µM and > 100 µM
HOP-92 NSCLC
  GI50: 20.8 µM and > 100 µM
  TGI: 39 µM and > 100 µM
SNB-19 CNS
  GI50: 34.6 µM and > 100 µM
  TGI: > 100 µM
MDA-MB-231 breast
  GI50: 17.6 µM and > 100 µM
  TGI: 35 µM and > 100 µM
A498 renal
  GI50: 22.9 µM and > 100 µM
  TGI: 39.9 µM and > 100 µM
COLO 205 colon
  GI50: 13.5 µM and > 100 µM
  TGI: 31.8 µM and > 100 µM
UACC-257 melanoma
  TGI: 10.8 µM and > 100 µM
NCI/ADR-RES ovarian
  GI50: 23.5 µM and > 100 µM
  TGI: 59.5 µM and > 100 µM
HCT-116 colon
  GI50: 19.2 µM and > 100 µM
  TGI: 36.2 µM and > 100 µM
HOP-62 NSCLC
  GI50: 18 µM and > 100 µM
  TGI: 36.2 µM and > 100 µM
M14 melanoma
  GI50: 16.7 µM and > 100 µM
  TGI: 37.8 µM and > 100 µM
K-562 leukemia
  TGI: > 100 µM
SF-539 CNS
  GI50: 12.8 µM and > 100 µM
  TGI: 29.4 µM and > 100 µM
CCRF-CEM leukemia
  GI50: 10.1 µM and > 100 µM
  TGI: > 100 µM
UO-31 renal
  GI50: 17.4 µM and > 100 µM
  TGI: 37.4 µM and > 100 µM
SK-MEL-28 melanoma
  TGI: 22.3 µM and > 100 µM
RPMI-8226 leukemia
  TGI: > 100 µM
OVCAR-5 ovarian
  GI50: 19 µM and > 100 µM
  TGI: 33.3 µM and > 100 µM
HL-60(TB) leukemia
  GI50: 28.8 µM and > 100 µM
  TGI: 69.9 µM and > 100 µM
U251 CNS
  TGI: 22.9 µM and > 100 µM
MOLT-4 leukemia
  GI50: 23.4 µM and > 100 µM
  TGI: 81.6 µM and > 100 µM
SF-268 CNS
  TGI: 30.8 µM and > 100 µM
OVCAR-4 ovarian
  TGI: 13.7 µM and > 100 µM
IGROV1 ovarian
  GI50: 10.7 µM and > 100 µM
  TGI: 33.2 µM and > 100 µM
